Source: patent publication US9241991B2, “Agents, compositions, and methods for treating pruritus and related skin conditions” (The Brigham and Women's Hospital, Inc., priority 2010, dated 2016)
One block for each compound: values may come before it.

Assays:
[1] = target: T1, TRPV1 (Mus musculus, UniProt Q704Y3); test: Behavior after intrathecal injection of capsaicin; type: in vivo; conditions: WT mice
[2] = target: T1, TRPV1; test: Patch clamp recording of sEPSCs in lamina II neurons of spinal cord slices, capsaicin; type: cell-based; design: central terminals of TRPV1-expressing nociceptors; from tissue; host or cells: mouse lumbar spinal cord slices (L4-L5); live mice (intrathecal capsaicin, resiniferatoxin pretreatment); conditions: capsaicin 1 μM, WT mice spinal cord slices
[3] = system: DRG neurons; test: Calcium imaging from cultured DRG neurons; type: cell-based; conditions: wild-type mice DRG neurons
Procedure: DRGs from all spinal levels of 4-week old mice were collected in cold DH10 (90% DMEM/F-12, 10% FBS, 100 U/ml penicillin, and 100 μg/ml Streptomycin, Gibco) and treated with enzyme solution (5 mg/ml Dispase, 1 mg/ml Collagenase Type I in HPBS without Ca^++ and Mg^++, Gibco) at 37° C. Following trituration and centrifugation, cells were resuspended in DH10, plated on glass cover slips coated with poly-D-lysine (0.5 mg/ml, Stoughton, Mass.) and laminin (10 μg/ml, Invitrogen), cultured in an incubator ([…] and 5% CO2) at 37° C. and used within 24 hours. Neurons were loaded with Fura 2-acetomethoxy ester (Molecular Probes) for 30 min in the dark at room temperature. After washing, cells were imaged at 340 and 380 nm excitation to detect intracellular free calcium. To compare the response to histamine, chloroquine, and capsaicin between WT and Tlr3-deficient DRG neurons, calcium imaging assays were performed with an experimenter blind to genotype (n=3 per genotype), and the percentages of DRG neurons showing calcium responses were determined as we previously described (23).

[4] = system: TLR3; test: Compound 48/80- and chloroquine-induced scratching after intrathecal TLR3 AS-ODNs; type: in vivo; conditions: intrathecal AS-ODNs 10 μg daily for 5 days, adult mice; P<0.05
Procedure: (§1) We injected pruritic agents intradermally in the nape of the neck (50 μl) or cheek (10 μl), respectively. We purchased histamine, compound 48/80, trypsin, chloroquine, serotonin, TLR3 agonist polyribo-inosinic/cytidylic acid (PIC), and complete Freund's adjuvant (CFA) from Sigma-Aldrich, histamine H1 receptor agonist histamine-trifluoromethyl-toluidine (HTMT), capsaicin, and the H4R-selective agonist 4-methylhistamine (4-MeHA) from Tocris, and endothelin-1 (ET-1) from ALEXIS Biochemicals. […] Antisense oligodeoxynucleotides (AS-ODN; 5′-[…]-3′; SEQ ID NO:1) targeting TLR3 and mismatch ODN (MM-ODN; 5′-[…]-3′; SEQ ID NO:2) were synthesized by Invitrogen according to the published sequences (2). AS-ODN (10 μg) or MM-ODN were intrathecally injected once a day for 5 days. To target DRG and spinal cord cells, TRIF inhibitor (10 μl) were delivered intrathecally into cerebral spinal fluid via a lumbar puncture. […]
Mice were habituated to the testing environment daily for at least two days before analysis. <ice were shaved at the back of the neck the day before injection. […] We injected 50 μl of pruritic agent intradermally in the nape of the neck and counted the number of scratches every 5 min for 30 min after the injection. A scratch was counted when a mouse lifted its hindpaw to scratch the shaved region and returned the paw to the floor or to the mouth for licking. […]

[5] = system: TLR3; test: TLR3 protein and mRNA levels in DRGs after intrathecal TLR3 antisense ODNs (Western blotting, quantitative PCR); type: in vivo; conditions: intrathecal AS-ODNs 10 μg daily for 5 days, adult WT mice; P<0.05
Procedure: as §1
Mice were terminally anesthetized with isoflurane and transcardially perfused with PBS, and the DRGs were rapidly removed and homogenized in a lysis buffer containing a cocktail of protease inhibitors and phosphatase inhibitors. The protein concentrations were determined by BCA Protein Assay (Pierce), and 30 μg of proteins were loaded for each lane and separated on SDS-PAGE gel (4-15%, Bio-Rad). […]

[6] = system: TLR4; test: TLR4 expression in the DRG after intrathecal AS-ODNs (specificity); type: in vivo, mice
Procedure: We injected pruritic agents intradermally in the nape of the neck (50 μl) or cheek (10 μl), respectively. We purchased histamine, compound 48/80, trypsin, chloroquine, serotonin, TLR3 agonist polyribo-inosinic/cytidylic acid (PIC), and complete Freund's adjuvant (CFA) from Sigma-Aldrich, histamine H1 receptor agonist histamine-trifluoromethyl-toluidine (HTMT), capsaicin, and the H4R-selective agonist 4-methylhistamine (4-MeHA) from Tocris, and endothelin-1 (ET-1) from ALEXIS Biochemicals. […] Antisense oligodeoxynucleotides (AS-ODN; 5′-[…]-3′; SEQ ID NO:1) targeting TLR3 and mismatch ODN (MM-ODN; 5′-[…]-3′; SEQ ID NO:2) were synthesized by Invitrogen according to the published sequences (2). AS-ODN (10 μg) or MM-ODN were intrathecally injected once a day for 5 days. To target DRG and spinal cord cells, TRIF inhibitor (10 μl) were delivered intrathecally into cerebral spinal fluid via a lumbar puncture. A successful spinal puncture was evidenced by a brisk tail-flick after the needle entry into subarachnoid space (3). Most reagents were dissolved in sterile saline. Capsaicin was dissolved in 10% DMSO.
We collected back hairy skin and cervical DRGs from 4 pairs of WT and Tlr3^−/− mice and isolated total RNAs using RNeasy Plus Mini kit (Qiagen, Valencia, Calif.). […]

[7] = target: T2, TLR3 (Mus musculus, UniProt Q99MB1); test: Patch-clamp recording of PIC-induced inward currents in dissociated DRG neurons; type: cell-based, mice; design: from tissue; host or cells: mouse DRG (dissociated small neurons), lumbar spinal cord slices, neck skin of live mice
T2 sequence (Q99MB1 26-905): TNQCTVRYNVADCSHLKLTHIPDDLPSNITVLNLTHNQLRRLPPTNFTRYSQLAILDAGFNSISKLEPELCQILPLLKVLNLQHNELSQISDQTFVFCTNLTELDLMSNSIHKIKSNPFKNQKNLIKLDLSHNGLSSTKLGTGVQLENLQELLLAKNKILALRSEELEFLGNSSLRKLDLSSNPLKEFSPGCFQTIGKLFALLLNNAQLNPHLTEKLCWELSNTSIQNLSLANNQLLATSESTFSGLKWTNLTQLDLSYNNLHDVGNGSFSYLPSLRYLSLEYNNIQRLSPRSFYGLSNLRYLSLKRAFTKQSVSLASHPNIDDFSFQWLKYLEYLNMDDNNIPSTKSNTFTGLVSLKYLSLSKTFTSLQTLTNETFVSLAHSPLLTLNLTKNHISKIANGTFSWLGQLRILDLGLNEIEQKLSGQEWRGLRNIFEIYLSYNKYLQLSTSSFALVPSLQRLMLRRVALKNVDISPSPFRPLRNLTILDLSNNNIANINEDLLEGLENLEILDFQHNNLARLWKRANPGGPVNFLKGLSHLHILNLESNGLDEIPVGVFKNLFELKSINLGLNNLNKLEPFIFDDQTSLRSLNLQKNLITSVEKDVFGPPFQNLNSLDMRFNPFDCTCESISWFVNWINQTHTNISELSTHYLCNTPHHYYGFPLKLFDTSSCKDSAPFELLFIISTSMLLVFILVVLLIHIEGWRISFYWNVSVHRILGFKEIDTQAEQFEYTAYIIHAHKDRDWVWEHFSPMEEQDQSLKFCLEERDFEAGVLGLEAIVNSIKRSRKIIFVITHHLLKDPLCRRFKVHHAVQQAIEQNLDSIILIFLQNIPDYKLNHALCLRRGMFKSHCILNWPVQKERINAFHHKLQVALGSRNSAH
Procedure: DRGs were removed aseptically from 4-week old mice and first incubated with collagenase (1.25 mg/ml, Roche)/dispase-II (2.4 units/ml, Roche) at 37° C. for 90 min, then digested with 0.25% trypsin (Cellgro) for 8 min at 37° C., followed by 0.25% trypsin inhibitor (Sigma). Cells were then mechanically dissociated with a flame polished Pasteur pipette in the presence of 0.05% DNAse I (Sigma). DRG cells were plated onto poly-D-lysine and laminin-coated slide chambers (for immunocytochemistry) or glass cover slips (for electrophysiology) and grown in a neurobasal defined medium (with 2% B27 supplement, Invitrogen) in the presence of 5 μM AraC, at 36.5° C., with 5% carbon dioxide.
Single-cell RT-PCR was performed as previously described (6). DRG cultures were prepared as above described and grown on glass cover slips coated with poly-D-lysine and laminin. Whole-cell patch clamp recordings were performed at room temperature to measure currents in dissociated DRG neurons with small-sizes using Axopatch-200B amplifier (Axon Instruments, Union City, USA). The patch pipettes were pulled from borosilicate capillaries (Chase Scientific Glass Inc., Rockwood, Calif., USA). When filled with the pipette solution, the resistance of the pipettes was 4˜5 MΩ. The recording chamber (volume 300 μl) was continuously superfused (3-4 ml/min). Series resistance was compensated for (>80%), and leak subtraction was performed. Data were low-pass-filtered at 2 KHz, sampled at 10 KHz. The pClamp8 (Axon Instruments) software was used during experiments and analysis. The pipette solution was composed of (in mM): 126 K-gluconate, 10 NaCl, 1 MgCl2, 10 EGTA, 2 NaATP, 0.1 MgGTP, pH 7.3 with KOH, 295-300 mOsm. Extracellular solution contained (in mM): 140 NaCl, 5 KCl, 2 CaCl2, 1 MgCl2, 10 HEPES, 10 glucose adjusted to pH 7.4 with NaOH, osmolarity 310 mOsm. Inward currents were recorded at a holding potential of −60 mV. In some experiments, following parch-clamp recording, the recorded DRG neurons were collected for single-cell RT-PCR analysis.

[8] = target: T2, TLR3; test: Scratching after intradermal PIC in naive mice and after AEW dry skin treatment; type: in vivo; design: from tissue; host or cells: mouse DRG (dissociated small neurons), lumbar spinal cord slices, neck skin of live mice
Procedure: Mice were habituated to the testing environment daily for at least two days before analysis. <ice were shaved at the back of the neck the day before injection. We put mice in small plastic chambers (14×18×12 cm) on an elevated metal mesh floor and allowed 30 min for habituation before examination. We injected 50 μl of pruritic agent intradermally in the nape of the neck and counted the number of scratches every 5 min for 30 min after the injection. A scratch was counted when a mouse lifted its hindpaw to scratch the shaved region and returned the paw to the floor or to the mouth for licking. On the basis of previous reports (4; 5) and our preliminary studies (6), we chose the following doses for pruritic agents: 25 ng for ET-1, 20 μg for 5-HT, 100 μg for HTMT, compound 48/80, and SLIGRL-NH2, 200 μg for chloroquine, 300 μg for trypsin, and 500 μg for histamine and 4-MeHA. We also injected diluted formalin (0.6%, 50 μl) in the nape to induce scratching behaviors. The experimenters were blinded to the genotypes of the animals. We also produced a dry skin model for chronic itch as described in detail previously (7), by painting neck skin with acetone and diethyether (1:1) following by water (AEW) twice a day for 7 days, and examined spontaneous itch by counting the number of scratches for 60 minutes on day 8 and 9.

[9] = target: T2, TLR3; test: Patch clamp recording of sEPSCs in lamina II neurons of spinal cord slices, PIC; type: cell-based; design: from tissue; host or cells: mouse DRG (dissociated small neurons), lumbar spinal cord slices, neck skin of live mice; conditions: PIC 100 ng/ml, slices of WT but not Tlr3-/- mice; P<0.05
Procedure: As we previously reported (18), a portion of the lumbar spinal cord (L4-L5) was removed from mice (4-6 week old) under urethane anesthesia (1.5-2.0 g/kg, i.p.) and kept in pre-oxygenated ice-cold Krebs solution. Transverse slices (600 μm) were cut on a vibrating microslicer. The slices were perfused with Kreb's solution (8-10 ml/min) that was saturated with 95% O2 and 5% CO2 at 36±1° C. for at least 1-3 hours prior to experiment. The Kreb's solution contains (in mM): NaCl 117, KCl 3.6, CaCl2 2.5, MgCl2 1.2, NaH2PO4 1.2, NaHCO3 25, and glucose 11.
The whole cell patch-clamp recordings were made from lamina IIo neurons in voltage clamp mode. Patch pipettes were fabricated from thin-walled, borosilicate, glass-capillary tubing (1.5 mm o.d., World Precision Instruments). After establishing the whole-cell configuration, neurons were held at the potential of −70 mV to record sEPSCs. The resistance of a typical patch pipette is 5-10 M. The internal solution contains (in mM): potassium gluconate 135, KCl 5, CaCl2 0.5, MgCl2 2, EGTA 5, HEPES 5, ATP-Mg 5. Membrane currents were amplified with an Axopatch 200B amplifier (Axon Instruments) in voltage-clamp mode. Signals were filtered at 2 kHz and digitized at 5 kHz. Data were stored with a personal computer using pCLAMP 10 software and analyzed with Mini Analysis (Synaptosoft Inc.).

T1 sequence (Q704Y3 whole entry): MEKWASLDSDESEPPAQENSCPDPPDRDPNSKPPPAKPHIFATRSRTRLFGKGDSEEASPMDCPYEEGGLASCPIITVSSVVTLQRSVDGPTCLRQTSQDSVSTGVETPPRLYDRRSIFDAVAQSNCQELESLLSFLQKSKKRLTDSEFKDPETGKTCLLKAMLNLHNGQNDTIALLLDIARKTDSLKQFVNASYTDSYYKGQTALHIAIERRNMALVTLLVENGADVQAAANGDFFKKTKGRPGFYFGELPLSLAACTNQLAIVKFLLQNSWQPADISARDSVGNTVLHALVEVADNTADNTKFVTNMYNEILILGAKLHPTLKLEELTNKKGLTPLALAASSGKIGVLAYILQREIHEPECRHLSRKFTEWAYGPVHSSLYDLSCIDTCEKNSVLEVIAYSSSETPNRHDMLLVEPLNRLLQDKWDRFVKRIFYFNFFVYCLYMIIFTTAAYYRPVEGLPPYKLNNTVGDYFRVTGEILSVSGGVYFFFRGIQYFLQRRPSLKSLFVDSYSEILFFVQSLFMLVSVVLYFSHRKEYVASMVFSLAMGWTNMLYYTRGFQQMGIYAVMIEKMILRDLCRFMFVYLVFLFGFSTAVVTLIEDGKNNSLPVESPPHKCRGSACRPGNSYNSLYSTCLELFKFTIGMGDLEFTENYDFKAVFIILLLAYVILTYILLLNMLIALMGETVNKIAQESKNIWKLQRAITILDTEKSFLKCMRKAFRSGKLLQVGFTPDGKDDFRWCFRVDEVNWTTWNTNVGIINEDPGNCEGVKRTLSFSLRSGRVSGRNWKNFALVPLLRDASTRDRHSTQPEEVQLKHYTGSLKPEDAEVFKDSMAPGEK

Compound: COc1cc(CNC(=O)CCCC/C=C/C(C)C)ccc1O [capsaicin]
- behavior after intrathecal injection [1]: induced biting, licking and scratching behavior
- sEPSC frequency in lamina II neurons [2]: dramatic increase
- neurons with intracellular Ca2+ increases [3]: 39%

Compound: AS-ODNs: Antisense oligodeoxynucleotides 5′-AACAATTGCTTCAAGTCC-3′ (SEQ ID NO:1) targeting TLR3, synthesized by Invitrogen (DNA, backbone not given here)
- chloroquine-induced scratching [4]: significantly inhibited
- compound 48/80-induced scratching [4]: significantly inhibited
- TLR3 protein and mRNA levels in DRGs [5]: partial knockdown
- TLR4 expression in the DRG [6]: did not affect

- neurons that respond to PIC ([7]; PIC 200 ng/ml, small DRG neurons, all also express TLR3 mRNA): four neurons (out of ten)
- inward currents in DRG neurons from Tlr3-/- mice ([7]; Tlr3-/- mice): failed to induce inward currents
- neurons in which an inward current was elicited ([7]; dissociated DRG neurons, WT, PIC 100-1000 ng/ml, 5 out of 8): 60%
- spontaneous scratching after AEW treatment ([8]; intradermal PIC, TLR3-dependent, P<0.05): able to potentiate
- sEPSC frequency [9]: increased
Compound: polyribo-inosinic/cytidylic acid [PIC]
- scratching responses in naive mice ([8]; intradermal PIC 0.1-100 μg): failed to induce obvious scratching responses
